Experimental findings from PubChem BioAssay (NCI) are described below.

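Results reflect a 48-hour exposure of cells in 96-well plates to compound at five concentrations. At the GI50, growth is halved. The concentration for full growth arrest is given as TGI.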

Some test systems named below: COLO 205 colon; EKVX NSCLC; HOP-92 NSCLC; MOLT-4 leukemia; SK-MEL-5 melanoma; HCT-116 colon; OVCAR-3 ovarian; SK-OV-3 ovarian; SK-MEL-28 melanoma; SNB-75 CNS.
Experiment in all cases: inhibition of tumour cell growth, NCI panel, 48 h

As to `O=[N+]([O-])/C=C/c1cn(CCCCCn2cc(/C=C/[N+](=O)[O-])c3ccccc32)c2ccccc12`, the TGI in the assay on COLO 205 colon is over 46.1 µM; in the assay on EKVX NSCLC, over 37.4 µM; with HOP-92 NSCLC it was 67 µM; in the assay with MOLT-4 leukemia it was over 20.4 µM; in the assay on SK-MEL-5 melanoma, 3.46 µM; with HCT-116 colon, 0.824 µM. Also, the TGI was 4.66 µM in the assay on OVCAR-3 ovarian, over 93.5 µM in the assay with SK-OV-3 ovarian and 12.2 µM in the assay with SK-MEL-28 melanoma.
For `O=C1/C(=C\c2cccc(Oc3ccccc3)c2)SC(c2ccccc2)N1c1cccc([N+](=O)[O-])c1` (stereo not given), the TGI in the assay on COLO 205 colon, in the assay on EKVX NSCLC, in the assay on HOP-92 NSCLC, with MOLT-4 leukemia, in the assay on SK-MEL-5 melanoma and in the assay on HCT-116 colon was over 100 µM throughout. Also, the TGI with OVCAR-3 ovarian, with SK-OV-3 ovarian and with SK-MEL-28 melanoma was over 100 µM in each case.
Consider `COC(=O)C(C(=O)C(=O)NC1Nc2ccc(C)cc2S1)c1nc2ccc(Cl)cc2[nH]c1=O` (stereo not given), for which the TGI in the assay on EKVX NSCLC, in the assay on SNB-75 CNS, with HOP-92 NSCLC, in the assay with SK-MEL-5 melanoma, with HCT-116 colon and in the assay with OVCAR-3 ovarian was over 100 µM in each case. In addition, the TGI with SK-OV-3 ovarian and with SK-MEL-28 melanoma was over 100 µM each time.
As to `O=S1(=O)OCCOS(=O)(=O)C1Cc1nc2ccccc2[nH]1`, the TGI was over 100 µM with COLO 205 colon; over 100 µM in the assay with EKVX NSCLC; over 100 µM with HOP-92 NSCLC; 92.4 µM with MOLT-4 leukemia; over 100 µM in the assay with SK-MEL-5 melanoma; 57 µM in the assay on HCT-116 colon. The TGI in the assay with OVCAR-3 ovarian and with SK-MEL-28 melanoma was over 100 µM throughout.
Turning to `N#CCCC1(CCC#N)CCCCCCC(CCC#N)(CCC#N)C(O)C1O` (stereo not given), the TGI in the assay on COLO 205 colon, in the assay with SNB-75 CNS, with HOP-92 NSCLC, in the assay on SK-MEL-5 melanoma, in the assay with HCT-116 colon and with OVCAR-3 ovarian was over 100 µM in each case. The TGI in the assay with SK-OV-3 ovarian and in the assay on SK-MEL-28 melanoma was over 100 µM throughout.
Take `COc1ccc(/C=C2\CCC(CNc3ccc(Br)cc3)C2=O)cc1` (stereo not given): the TGI in the assay on COLO 205 colon, in the assay on EKVX NSCLC, in the assay on HOP-92 NSCLC, in the assay with MOLT-4 leukemia, in the assay on SK-MEL-5 melanoma and in the assay on OVCAR-3 ovarian was over 100 µM in each case. The TGI with SK-OV-3 ovarian and in the assay on SK-MEL-28 melanoma was over 100 µM each time.
Regarding `CC(C)C1CC(CO)(CNc2cc(Cl)nc(N)n2)C1` (stereo not given), the TGI with COLO 205 colon was over 100 µM; with EKVX NSCLC it was over 100 µM; with HOP-92 NSCLC, over 100 µM; in the assay with SK-MEL-5 melanoma, 40.8 µM; with HCT-116 colon, over 100 µM; in the assay on OVCAR-3 ovarian, over 100 µM. Besides, the TGI with SK-OV-3 ovarian and with SK-MEL-28 melanoma was over 100 µM throughout.
Take `C=C1CC(Cn2cc(Br)c(=O)[nH]c2=O)(c2ccc(-c3ccccc3)cc2)OC1=O` (stereo not given): the TGI with COLO 205 colon stood at 2.23 µM; with EKVX NSCLC, 7.42 µM; in the assay with SNB-75 CNS it was 17.6 µM; with HOP-92 NSCLC, 0.113 µM; with SK-MEL-5 melanoma, 2.55 µM; in the assay with HCT-116 colon it was 1.32 µM. For the same molecule, the figures for the TGI in the assay on OVCAR-3 ovarian, in the assay on SK-OV-3 ovarian and with SK-MEL-28 melanoma were 2.98 µM, 15.9 µM and 0.671 µM, respectively.
In the case of `CC(=O)CC1(C)OC(N)=C(C#N)C1(C#N)C#N` (stereo not given), the TGI in the assay on COLO 205 colon, with EKVX NSCLC, with SNB-75 CNS, in the assay on HOP-92 NSCLC, with SK-MEL-5 melanoma and in the assay on HCT-116 colon was over 100 µM in each case. Besides, the TGI in the assay with SK-OV-3 ovarian and in the assay with SK-MEL-28 melanoma was over 100 µM each time.
Regarding `O=C(OCc1ccccc1C1CSCSC1)c1cc(C(=O)OCc2ccccc2C2CSCSC2)c(C(=O)OCc2ccccc2C2CSCSC2)cc1C(=O)OCc1ccccc1C1CSCSC1`, the TGI in the assay with COLO 205 colon, in the assay with SNB-75 CNS, with HOP-92 NSCLC, in the assay with MOLT-4 leukemia, in the assay with SK-MEL-5 melanoma and in the assay with HCT-116 colon was over 100 µM throughout. Besides, the TGI with OVCAR-3 ovarian, with SK-OV-3 ovarian and in the assay on SK-MEL-28 melanoma was over 100 µM in each case.
For the molecule `O=CNNC(=O)Nc1ccc(Cl)cc1`, the TGI is over 100 µM in the assay on COLO 205 colon; over 100 µM with EKVX NSCLC; over 100 µM in the assay with SNB-75 CNS; 76.8 µM with HOP-92 NSCLC; over 100 µM in the assay on MOLT-4 leukemia; over 100 µM in the assay with SK-MEL-5 melanoma. Further, the TGI in the assay on HCT-116 colon, in the assay with SK-OV-3 ovarian and with SK-MEL-28 melanoma was over 100 µM each time.
Consider `COc1ccc(C2=C(OC(=O)N(C)C)c3cccn3-c3cc(Cl)ccc3S2)cc1`, for which the TGI in the assay on COLO 205 colon, in the assay with EKVX NSCLC, in the assay with SNB-75 CNS, with HOP-92 NSCLC, in the assay with MOLT-4 leukemia and with SK-MEL-5 melanoma was over 10 µM in each case. The TGI with SK-OV-3 ovarian and with SK-MEL-28 melanoma was over 10 µM throughout.
Consider `COc1cccc(CN(C(=O)/C=C\Sc2ccccc2)C(C)(C)C)c1`, for which the TGI was over 100 µM in the assay on COLO 205 colon; over 100 µM in the assay with EKVX NSCLC; 70.8 µM in the assay on HOP-92 NSCLC; over 100 µM with MOLT-4 leukemia; over 100 µM in the assay on SK-MEL-5 melanoma; over 100 µM in the assay with HCT-116 colon. For the same molecule, the TGI with OVCAR-3 ovarian, in the assay with SK-OV-3 ovarian and in the assay on SK-MEL-28 melanoma was over 100 µM in each case.
As for `C=CCOC(=O)CCCCCCCCCCCCCCCOC(=O)C1=C(CCC[C@@H](C)O[Si](C)(C)C(C)(C)C)NC(=O)N2[C@H](CC3(CC/C=C\[C@H](CC)O[Si](C(C)C)(C(C)C)C(C)C)OCCO3)CC[C@H]12`, the TGI with COLO 205 colon was over 100 µM; in the assay on EKVX NSCLC, over 100 µM; in the assay with SNB-75 CNS, over 100 µM; in the assay with HOP-92 NSCLC, 90.2 µM; with SK-MEL-5 melanoma, over 100 µM; with HCT-116 colon, over 100 µM. Besides, the TGI in the assay on OVCAR-3 ovarian, in the assay on SK-OV-3 ovarian and in the assay on SK-MEL-28 melanoma was over 100 µM each time.
Turning to `CCOC(=O)CCCn1cc(C(=O)OC)nn1`, the TGI in the assay on COLO 205 colon, in the assay with EKVX NSCLC, in the assay on SNB-75 CNS, in the assay with HOP-92 NSCLC, in the assay on MOLT-4 leukemia and in the assay with SK-MEL-5 melanoma was over 100 µM throughout. The TGI with HCT-116 colon and in the assay with SK-MEL-28 melanoma was over 100 µM throughout.
With `CCCCCCOc1ccc(C(=N)N(CCCC)CCCC)c2ccccc12`, the GI50 in the assay with SNB-75 CNS was 1.19 µM; in the assay with HOP-92 NSCLC, 1.07 µM; in the assay with SK-MEL-5 melanoma it was 1.52 µM; with OVCAR-3 ovarian it was 1.49 µM; in the assay on SK-OV-3 ovarian, 1.57 µM; in the assay with SK-MEL-28 melanoma it was 1.77 µM. Moreover, the TGI was found to be 2.46 µM in the assay on SNB-75 CNS; 2.6 µM in the assay with HOP-92 NSCLC; 2.85 µM in the assay on SK-MEL-5 melanoma; 2.98 µM in the assay with OVCAR-3 ovarian; 2.96 µM with SK-OV-3 ovarian; 3.2 µM in the assay on SK-MEL-28 melanoma.
Consider `CCOC(=O)c1nc2ccccc2nc1NCc1ccc(Cl)cc1Cl`, for which the TGI in the assay with COLO 205 colon, with EKVX NSCLC, in the assay with SNB-75 CNS, with HOP-92 NSCLC, in the assay with MOLT-4 leukemia and with SK-MEL-5 melanoma was over 100 µM throughout. Moreover, the TGI in the assay on HCT-116 colon, in the assay with OVCAR-3 ovarian and in the assay on SK-OV-3 ovarian was over 100 µM throughout.
With `CCOC(=O)C1CCCCc2sc(N)c(C#N)c21` (stereo not given), the TGI in the assay on COLO 205 colon, with EKVX NSCLC, with SNB-75 CNS, in the assay on HOP-92 NSCLC, in the assay with MOLT-4 leukemia and in the assay with SK-MEL-5 melanoma was over 100 µM throughout. The TGI in the assay on HCT-116 colon and in the assay with SK-MEL-28 melanoma was over 100 µM in each case.
In the case of `Cc1cc(=O)[nH]c(NNC(C#N)c2ccc([N+](=O)[O-])cc2)n1` (stereo not given), the TGI with COLO 205 colon, in the assay on SNB-75 CNS, in the assay with HOP-92 NSCLC, in the assay on MOLT-4 leukemia, with SK-MEL-5 melanoma and in the assay with HCT-116 colon was over 100 µM throughout. Further, the TGI with OVCAR-3 ovarian, with SK-OV-3 ovarian and in the assay with SK-MEL-28 melanoma was over 100 µM each time.
For the molecule `COc1ccc(-c2c3ccccc3c(-c3ccc(OCCCCCBr)cc3)c3ccccc23)cc1`, the TGI with COLO 205 colon, in the assay on EKVX NSCLC, in the assay on HOP-92 NSCLC, in the assay with MOLT-4 leukemia, in the assay with HCT-116 colon and in the assay on OVCAR-3 ovarian was over 100 µM in each case. The TGI with SK-OV-3 ovarian and in the assay with SK-MEL-28 melanoma was over 100 µM each time.
`O=C(c1ccco1)C1CC(c2ccc3ccccc3c2O)=NN1c1ccc([N+](=O)[O-])cc1[N+](=O)[O-]` (stereo not given): the TGI was 32 µM with COLO 205 colon; 89.1 µM with SNB-75 CNS; 76.1 µM with HOP-92 NSCLC; 11.4 µM in the assay on MOLT-4 leukemia; over 100 µM with HCT-116 colon; over 100 µM with OVCAR-3 ovarian. Also, the TGI with SK-OV-3 ovarian is 96.9 µM; in the assay on SK-MEL-28 melanoma it was over 100 µM.
For the molecule `C=C[C@@](C)(/C=C/c1ccc(O)cc1)CCC=C(C)C`, the TGI in the assay with COLO 205 colon is 33.1 µM; in the assay with SNB-75 CNS it was 26.9 µM; in the assay with HOP-92 NSCLC it was 32 µM; with MOLT-4 leukemia it was 28 µM; in the assay with SK-MEL-5 melanoma it was 30.7 µM; in the assay with HCT-116 colon, 32.2 µM. Besides, the TGI in the assay on OVCAR-3 ovarian came out at 32.2 µM; with SK-OV-3 ovarian, 30 µM; in the assay with SK-MEL-28 melanoma, 35.7 µM.
